From PubChem BioAssay AID1963862 (Molecular Pharmacology Branch, DTP, NCI, 2024)

Tested on: KRAS patient-derived spheroids with HUVEC/MSC, viability
Assay: Anticancer human tumor 941728-121-R-J1-PDC patient-derived lung adenocarcinoma cell line growth inhibition [KRAS2]
Settings: for IC50: curve of first compound; for viability, T/C: stronger effect = lower value
How it was run: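 KRAS-mutant tumor cells were grown as spheroids with HUVEC endothelial cells and human MSCs as stroma. Targeted agents were tested alone and with KRAS pathway inhibitors. Doses started at or near clinical Cmax, or 10 microM, descending half-log.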

[1] = second compound 0.1 µM, first compound 0.0316 µM
[2] = second compound 0.1 µM, first compound 0.1 µM
[3] = second compound 0.1 µM, first compound 0.316 µM
[4] = second compound 0.1 µM, first compound 1 µM
[5] = second compound 0.1 µM, first compound 3.16 µM
[6] = second compound 0.1 µM, first compound 10 µM
[7] = second compound 0.316 µM, first compound 0.0316 µM
[8] = second compound 0.316 µM, first compound 0.1 µM
[9] = second compound 0.316 µM, first compound 0.316 µM
[10] = second compound 0.316 µM, first compound 1 µM
[11] = second compound 0.316 µM, first compound 3.16 µM
[12] = second compound 0.316 µM, first compound 10 µM
[13] = second compound 1 µM, first compound 0.0316 µM
[14] = second compound 1 µM, first compound 0.1 µM
[15] = second compound 1 µM, first compound 0.316 µM
[16] = second compound 1 µM, first compound 1 µM
[17] = second compound 1 µM, first compound 3.16 µM
[18] = second compound 1 µM, first compound 10 µM
[19] = second compound 3.16 µM, first compound 0.0316 µM
[20] = second compound 3.16 µM, first compound 0.1 µM
[21] = second compound 3.16 µM, first compound 0.316 µM
[22] = second compound 3.16 µM, first compound 1 µM
[23] = second compound 3.16 µM, first compound 3.16 µM
[24] = second compound 3.16 µM, first compound 10 µM
[25] = second compound 10 µM, first compound 0.0316 µM
[26] = second compound 10 µM, first compound 0.1 µM
[27] = second compound 10 µM, first compound 0.316 µM
[28] = second compound 10 µM, first compound 1 µM
[29] = second compound 10 µM, first compound 3.16 µM
[30] = second compound 10 µM, first compound 10 µM
[31] = second compound 0.1 µM, first compound 0.01 µM
[32] = second compound 0.316 µM, first compound 0.01 µM
[33] = second compound 1 µM, first compound 0.01 µM
[34] = second compound 3.16 µM, first compound 0.01 µM
[35] = second compound 10 µM, first compound 0.01 µM
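Further: spheroids exposed to agents for seven days before readout.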

Compound CC1OCC2(CCN(c3cnc(Sc4ccnc(N)c4Cl)c(N)n3)CC2)C1N (stereo unspecified) + C=CC(=O)N1CCN(c2nc(=O)n(-c3c(C)ccnc3C(C)C)c3nc(-c4c(O)cccc4F)c(F)cc23)C(C)C1 has an IC50 (second compound 0.1 µM) of less than 31.6 nM, an IC50 (second compound 0.316 µM) of less than 31.6 nM and an IC50 (second compound 1 µM) of less than 31.6 nM. For the same compound, the IC50 (second compound 3.16 µM) was less than 31.6 nM, the IC50 (second compound 10 µM) was less than 31.6 nM and the viability, T/C [1] was 21.9%. For the same compound, the viability, T/C [2] was 20.6%, the viability, T/C [3] was 17.3% and the viability, T/C [4] was 16.8%. The viability, T/C [5] was 16.6%, the viability, T/C [6] was 12.9% and the viability, T/C [7] was 26.5%. For the same compound, the viability, T/C [8] was 23%, the viability, T/C [9] was 20.1% and the viability, T/C [10] was 17.1%. The viability, T/C [11] was 15.1%, the viability, T/C [12] was 12.4% and the viability, T/C [13] was 31.1%. For the same compound, the viability, T/C [14] was 24.7%, the viability, T/C [15] was 20.4% and the viability, T/C [16] was 18.9%. The viability, T/C [17] was 19.6%, the viability, T/C [18] was 17.8% and the viability, T/C [19] was 29%. It also gave a viability, T/C [20] of 25.4%, a viability, T/C [21] of 25.6% and a viability, T/C [22] of 21.5%. It also gave a viability, T/C [23] of 22.1%, a viability, T/C [24] of 18.5% and a viability, T/C [25] of 34.1%. It also gave a viability, T/C [26] of 35%, a viability, T/C [27] of 31% and a viability, T/C [28] of 26.8%. The viability, T/C [29] was 26.7% and the viability, T/C [30] was 28.5%.
Compound Cn1nccc1Nc1nccc(-c2cc3c(s2)C(C)(C)N(CCN2CCOCC2)C3=O)n1 + CNCc1ccccc1-c1csc(C(C)Nc2nc(C)nc3cc(OC)c(OC)cc23)c1 has an IC50 (second compound 0.1 µM) of 81.2 nM, an IC50 (second compound 0.316 µM) of less than 31.6 nM and an IC50 (second compound 1 µM) of less than 31.6 nM. It also gave an IC50 (second compound 3.16 µM) of less than 31.6 nM, an IC50 (second compound 10 µM) of less than 31.6 nM and a viability, T/C [1] of 70.3%. The viability, T/C [2] was 46.4%, the viability, T/C [3] was 37.4% and the viability, T/C [4] was 37.9%. For the same compound, the viability, T/C [5] was 36.8%, the viability, T/C [6] was 40.7% and the viability, T/C [7] was 40.3%. For the same compound, the viability, T/C [8] was 37.9%, the viability, T/C [9] was 34.8% and the viability, T/C [10] was 32.3%. It also gave a viability, T/C [11] of 31%, a viability, T/C [12] of 29.6% and a viability, T/C [13] of 35.6%. The viability, T/C [14] was 30.3%, the viability, T/C [15] was 31.6% and the viability, T/C [16] was 21.3%. It also gave a viability, T/C [17] of 11.4%, a viability, T/C [18] of 13.1% and a viability, T/C [19] of 1.11%. It also gave a viability, T/C [20] of 2.35%, a viability, T/C [21] of 1.61% and a viability, T/C [22] of 0.99%. For the same compound, the viability, T/C [23] was 1.35%, the viability, T/C [24] was 0.25% and the viability, T/C [25] was 0.56%. The viability, T/C [26] was 0.88%, the viability, T/C [27] was 0.44% and the viability, T/C [28] was 0.77%. The viability, T/C [29] was 0.11% and the viability, T/C [30] was 0.35%.
CC1(C)CCC(CN2CCN(c3ccc(C(=O)NS(=O)(=O)c4ccc(NCC5CCOCC5)c([N+](=O)[O-])c4)c(Oc4cnc5[nH]ccc5c4)c3)CC2)=C(c2ccc(Cl)cc2)C1 + C=CC(=O)N1CCN(c2nc(=O)n(-c3c(C)ccnc3C(C)C)c3nc(-c4c(O)cccc4F)c(F)cc23)C(C)C1 showed an IC50 (second compound 0.1 µM) of less than 31.6 nM, an IC50 (second compound 0.316 µM) of less than 31.6 nM and an IC50 (second compound 1 µM) of less than 31.6 nM. For the same compound, the IC50 (second compound 3.16 µM) was less than 31.6 nM, the IC50 (second compound 10 µM) was less than 31.6 nM and the viability, T/C [1] was 20.2%. For the same compound, the viability, T/C [2] was 17.6%, the viability, T/C [3] was 17.8% and the viability, T/C [4] was 17.4%. For the same compound, the viability, T/C [5] was 7.67%, the viability, T/C [6] was 2.7% and the viability, T/C [7] was 18.6%. For the same compound, the viability, T/C [8] was 16.1%, the viability, T/C [9] was 16.4% and the viability, T/C [10] was 16.3%. For the same compound, the viability, T/C [11] was 9.65%, the viability, T/C [12] was 4.02% and the viability, T/C [13] was 20.8%. It also gave a viability, T/C [14] of 19.7%, a viability, T/C [15] of 29.4% and a viability, T/C [16] of 17%. It also gave a viability, T/C [17] of 13.2%, a viability, T/C [18] of 4.29% and a viability, T/C [19] of 19.3%. It also gave a viability, T/C [20] of 16.4%, a viability, T/C [21] of 22.5% and a viability, T/C [22] of 18.2%. It also gave a viability, T/C [23] of 15.2%, a viability, T/C [24] of 4.62% and a viability, T/C [25] of 25.3%. For the same compound, the viability, T/C [26] was 24.8%, the viability, T/C [27] was 25.7% and the viability, T/C [28] was 22.4%. For the same compound, the viability, T/C [29] was 8.54% and the viability, T/C [30] was 8.81%.
For CC1COCCN1c1cc(-c2ccnn2C)c2ccnc(-c3ccn[nH]3)c2n1 (stereo unspecified), the viability, T/C (compound 0.1 µM) was 44% [middle of 5 runs], the viability, T/C (compound 0.316 µM) was 42% [middle of 5 runs] and the viability, T/C (compound 1 µM) was 35.4% [middle of 5 runs]. For the same compound, the viability, T/C (compound 3.16 µM) was 33.2% [middle of 5 runs].
With Cn1ncnc1[C@H]1c2n[nH]c(=O)c3cc(F)cc(c23)N[C@@H]1c1ccc(F)cc1 + COc1cc2nc(C)nc(NC(C)c3cc(N)cc(C(F)(F)F)c3)c2cc1OC1CCOC1 the IC50 (second compound 0.1 µM) was greater than 100 nM, the IC50 (second compound 0.316 µM) was less than 0.316 nM and the IC50 (second compound 1 µM) was less than 0.316 nM. The IC50 (second compound 3.16 µM) was less than 0.316 nM, the IC50 (second compound 10 µM) was less than 0.316 nM and the viability, T/C (second compound 0.1 µM, first compound 0.000316 µM) was 61.1%. For the same compound, the viability, T/C (second compound 0.1 µM, first compound 0.001 µM) was 51.9%, the viability, T/C (second compound 0.1 µM, first compound 0.00316 µM) was 47.1% and the viability, T/C [31] was 52.2%. The viability, T/C [1] was 66.2%, the viability, T/C [2] was 58.8% and the viability, T/C (second compound 0.316 µM, first compound 0.000316 µM) was 48.9%. The viability, T/C (second compound 0.316 µM, first compound 0.001 µM) was 41.8%, the viability, T/C (second compound 0.316 µM, first compound 0.00316 µM) was 36.7% and the viability, T/C [32] was 36.8%. It also gave a viability, T/C [7] of 47.6%, a viability, T/C [8] of 48% and a viability, T/C (second compound 1 µM, first compound 0.000316 µM) of 41.6%. It also gave a viability, T/C (second compound 1 µM, first compound 0.001 µM) of 31.4%, a viability, T/C (second compound 1 µM, first compound 0.00316 µM) of 30.7% and a viability, T/C [33] of 25.6%. It also gave a viability, T/C [13] of 33.5%, a viability, T/C [14] of 28.7% and a viability, T/C (second compound 3.16 µM, first compound 0.000316 µM) of 36.6%. It also gave a viability, T/C (second compound 3.16 µM, first compound 0.001 µM) of 34.4%, a viability, T/C (second compound 3.16 µM, first compound 0.00316 µM) of 32.1% and a viability, T/C [34] of 27.4%. For the same compound, the viability, T/C [19] was 22.1%, the viability, T/C [20] was 23.6% and the viability, T/C (second compound 10 µM, first compound 0.000316 µM) was 14.5%. The viability, T/C (second compound 10 µM, first compound 0.001 µM) was 11.8%, the viability, T/C (second compound 10 µM, first compound 0.00316 µM) was 13.1% and the viability, T/C [35] was 8%. The viability, T/C [25] was 9.61% and the viability, T/C [26] was 10.3%.
In the case of CCNC(=O)CC1N=C(c2ccc(Cl)cc2)c2cc(OC)ccc2-n2c(C)nnc21 (stereo unspecified), the viability, T/C (compound 0.0316 µM) is reported as 94% [middle of 5 runs] and the viability, T/C (compound 0.316 µM) is reported as 61.8% [middle of 5 runs].
CC(=O)OC12COC1CC(O)C1(C)C(=O)C(O)C3=C(C)C(OC(=O)C(O)C(NC(=O)OC(C)(C)C)c4ccccc4)CC(O)(C(OC(=O)c4ccccc4)C21)C3(C)C (stereo unspecified) + CNCc1ccccc1-c1csc(C(C)Nc2nc(C)nc3cc(OC)c(OC)cc23)c1 was tested, and the IC50 (second compound 0.1 µM) was less than 10 nM, the IC50 (second compound 0.316 µM) was less than 10 nM and the IC50 (second compound 1 µM) was less than 10 nM. For the same compound, the IC50 (second compound 3.16 µM) was less than 10 nM, the IC50 (second compound 10 µM) was less than 10 nM and the viability, T/C [31] was 35.7%. It also gave a viability, T/C [1] of 37.4%, a viability, T/C [2] of 32% and a viability, T/C [3] of 38.3%. The viability, T/C [4] was 34.3%, the viability, T/C [5] was 41.8% and the viability, T/C [32] was 28%. For the same compound, the viability, T/C [7] was 28%, the viability, T/C [8] was 27% and the viability, T/C [9] was 25.9%. The viability, T/C [10] was 29.3%, the viability, T/C [11] was 30.2% and the viability, T/C [33] was 29.2%. The viability, T/C [13] was 34.3%, the viability, T/C [14] was 34.5% and the viability, T/C [15] was 36%. The viability, T/C [16] was 38%, the viability, T/C [17] was 33% and the viability, T/C [34] was 18.7%. For the same compound, the viability, T/C [19] was 0.11%, the viability, T/C [20] was 0.09% and the viability, T/C [21] was 0.11%. The viability, T/C [22] was 0.1%, the viability, T/C [23] was 31.5% and the viability, T/C [35] was 0.14%. For the same compound, the viability, T/C [25] was 0.09%, the viability, T/C [26] was 0.1% and the viability, T/C [27] was 0.13%. It also gave a viability, T/C [28] of 28.4% and a viability, T/C [29] of 0.21%.
